Measurements taken from patent US20110009616A1, “AGENT FOR PREVENTING ARTERIOSCLEROSIS” (priority 2006, published 2011).

Experiments:
[1] = test system: living cells (mitochondria activity); experiment: Cytotoxicity, number of living cells by Cell counting Kit-8 (WST-8) (Example 5); assay type: cell-based; conditions: 7 hours with compound; concentrations where the inhibitory activities were effective; results not shown
Method: In order to examine cytotoxicities of the compounds in Examples 1 to 4 and Comparative Examples 1 to 9, the number of living cells was measured as follows. As a method for measuring the number of living cells, a MTT method using a reduction of MTT (3-(4,5-dimethyl-2-thiazolyl)-2,5-diphenyltetrazolium bromide) to formazan (formed as a poorly soluble precipitate) by dehydrogenase in mitochondria, and the like, are generally used. Thus, “Cell counting Kit-8” (manufactured by Dojindo Laboratories, WST-8 which forms a water soluble formazan is used instead of MTT), a modified method of the MTT method, was used for the measurement of the number of living cells. Specifically, 100 μL of cells were seeded into inner 60 wells of a 96-well plate (manufactured by Falcon) so as to be 3.0×10^4 cells/mL, respectively (in order to avoid temperature variation, 100 μL of a culture medium was only added into the outer 36 wells). After cultivating for 2 days (37° C.), 50 μL of the culture supernatant was removed and 50 μL of a new culture medium containing each compound with an appropriate dilution rate was added. After adding the new culture medium containing each compound, the cells were cultivated for 7 hours. After 7 hours, each well was washed with 100 μL of the culture medium without the compounds three times, and then 3 μL of a culture medium containing “WST-8”, a “Cell counting Kit-8” solution, was added to each well. After cultivating for 1 hour, absorbance at 450 nm of each culture medium was measured and converted to the number of living cells. It is considered that three washing operations in the process omit the effect of the compounds in the external solution on the absorbance.

[2] = biological target: T1, bLOX-1 (Bos taurus, UniProt P79391); experiment: Plate assay: binding of oxidized LDL to recombinant bLOX-1 (Test Example 1); parameters: 6xHis (N); made in house; host or cells: E. coli; species or system bovine; conditions: final concentration of 16 μM, FIG. 1; for binding rate of oxidized LDL to bLOX-1 (inhibition of binding): control without compounds = 100
Method: A LOX-1 antagonist activity of the agent for preventing arteriosclerosis obtained in the above-mentioned Example was evaluated on a LOX-1 binding inhibition rate to oxidized LDL using a recombinant LOX-1 protein obtained from E. coli.
As for the recombinant LOX-1, in cDNA of LOX-1 derived from bovine (bLOX-1) or derived from human (hLOX-1), a sequence to the C-terminal removing a transmembrane region was inserted into a pQE30 vector having a 6-histidine tag sequence (6×His) at the N-terminal (manufactured by Qiagen) so as to have a sequence aligned to a translation frame. The vector was transformed into E. coli able to be controlled by T5 promoter and the expression of each LOX-1 was induced under induction of 1 m M of isopropyl-1-thio-β-D-[…] (IPTG). After the induction of each expression at 37° C. for 3 hours, since the recombinant LOX-1 was obtained from an insoluble fraction, E. coli was lysed in a buffer containing 6 M guanidine hydrochloride and purified by affinity column chromatography using a Ni-NTA agarose column (manufactured by Qiagen) as the marker of 6×His (solvent: phosphoric acid buffer). Furthermore, each of the elution fractions containing LOX-1 was dialyzed in a 20 mM tris buffer (pH 9.0) and a 8M urea containing buffer, applied to a HiTrap Q column, an anion exchanger, (manufactured by Amersham), and eluted and purified with a linear concentration gradient of NaCl. Each of the fractions containing LOX-1 obtained above was reduced in a buffer containing excess amount of DTT (dithiothreitol), and then intramolecular S-S bonds were unwinded by a redox system using a mixture of oxidized […] low molecular thiol compounds. Each LOX-1 obtained above has a binding ability to the oxidized LDL and will be used as a LOX-1 standard for the following plate assays.
The plate assay was carried out using MaxiSorp Immuno Plate (96-well type, manufactured by NUNC). Each LOX-1 purified above was prepared with a PBS buffer so as to be 5 μg/mL, and 100 μL of the solution was applied to each well. After leaving at 4° C. overnight, each well was washed with 400 μL of a PBS buffer twice (400 μL×2) and 300 μL of a PBS buffer containing 25% BlockAce (manufactured by Dainippon Sumitomo Pharma Co., Ltd.) was applied to each well. After leaving at 4° C. overnight, each well was washed with 400 μL of a PBS buffer twice (400 μL×2), a solution of ethyl pheophorbide a was prepared with a PBS buffer containing 1% bovine serum albumin (BSA) so as to have an appropriate dilution rate, and 100 μL of the solution was applied to each well. After leaving at 4° C. overnight, each well was washed with 400 μL of a PBS buffer three times (400 μL×3), a solution of oxidized LDL was prepared with a PBS buffer so as to be 5 μg/mL, and 100 μL of the solution was applied to eachr well. After leaving at 4° C. overnight, each well was washed with 400 μL of a PBS buffer three times (400 μL×3), a horseradish peroxidase-conjugated anti-apolipoprotein B antibody (manufactured by The Binding Site) was diluted 1000 times with a PBS buffer, and 100 μL of the solution was applied to each well. After leaving at room temperature for 2 hours, each well was washed with 400 μL of a PBS buffer five times (400 μL×5), and 100 μL of a 3,3′,5,5′-tetramethylbenzidine (TMB) peroxidase-enzyme immunoassay (EIA)-substrate-kit reagent (manufactured by Bio-Rad) was applied to each well. After an appropriate reaction period, 50 μL of 2M H2SO4 was applied to each well to stop the reaction. Finally, a LOX-1 antagonist activity (an oxidized LDL binding inhibition rate to LOX-1) was determined by detection at 450 nm.
Target sequence in this assay (P79391 57-270 limits assumed): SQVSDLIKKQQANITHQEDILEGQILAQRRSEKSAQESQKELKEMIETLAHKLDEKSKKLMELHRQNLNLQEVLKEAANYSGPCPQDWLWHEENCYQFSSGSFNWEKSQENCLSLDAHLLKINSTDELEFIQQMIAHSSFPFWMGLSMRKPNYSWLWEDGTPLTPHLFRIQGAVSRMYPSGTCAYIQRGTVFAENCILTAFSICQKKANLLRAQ

[3] = biological target: T1, bLOX-1; experiment: Fluorescently labeled oxidized LDL uptake into CHO cells stably expressing bLOX-1 (Examples 6, 7); assay type: cell-based, bovine; parameters: By a positive screening using a full-length bLOX cDNA; expressed in transfected cells; conditions: Example 7; FIG. 6
Target sequence in this assay (P79391 whole entry): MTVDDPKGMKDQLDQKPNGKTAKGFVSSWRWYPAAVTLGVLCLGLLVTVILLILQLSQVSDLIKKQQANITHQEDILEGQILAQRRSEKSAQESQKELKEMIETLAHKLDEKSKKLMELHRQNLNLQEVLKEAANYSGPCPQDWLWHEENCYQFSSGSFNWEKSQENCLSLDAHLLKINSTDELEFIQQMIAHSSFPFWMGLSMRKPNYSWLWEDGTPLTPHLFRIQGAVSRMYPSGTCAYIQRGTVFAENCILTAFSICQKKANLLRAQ

Compound | cytotoxicity (number of living cells) [1] | inhibition activity on binding of oxidized LDL to bLOX-1 (ranking among actives) [2] | binding rate of oxidized LDL to bLOX-1 (inhibition of binding) [2] | inhibition of DiI-OxLDL uptake in CHO cells expressing bLOX, compared with inhibition of CTB uptake [3]
C=CC1=C(C)c2cc3[nH]c(c4c5nc(cc6[nH]c(cc1n2)c(C)c6CC)C(C)=C5C(=O)C4C(=O)OC)C(CCC(=O)OCC)C3C (stereo not drawn) [ethyl pheophorbide a] | did not show the cytotoxicity | high inhibition activities | inhibit the binding significantly | –
uroporphyrin III | did not show the cytotoxicity | – | inhibit the binding significantly | –
hematoporphyrin | did not show the cytotoxicity | high inhibition activities | inhibit the binding significantly | –
C[C@@H]1[C@H](O)[C@@H](C)/C=C/C=C/CC/C=C/C=C/C=C/C=C/C(O[C@H]2O[C@H](C)[C@@H](O)[C@H](N)[C@@H]2O)CC2O[C@](O)(CC(O)C(O)CCC(O)CC(O)CC(O)CC(=O)O[C@H]1C)CC(O)C2C(=O)O (stereo partly drawn) [nystatin, Nystatin] | – | – | – | nearly equal to that of CTB
